In one assay the target is T1, PC-TP (Homo sapiens, UniProt Q9UKL6).
T1 sequence (Q9UKL6 1-214): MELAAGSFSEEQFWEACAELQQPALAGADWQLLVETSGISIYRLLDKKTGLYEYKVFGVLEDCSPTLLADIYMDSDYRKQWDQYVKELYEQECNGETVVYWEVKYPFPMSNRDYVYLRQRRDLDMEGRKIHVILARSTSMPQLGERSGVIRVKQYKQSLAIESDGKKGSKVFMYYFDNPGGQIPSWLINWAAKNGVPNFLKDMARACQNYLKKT
The assay is described as follows: PC-TP inhibition assay (Wagle et al. method). Format: biochemical. The conditions noted are these: Table 1, concentration value. On the procedure:
(§1) The compounds in Table 1 and 2 were assayed for their ability to inhibit PC-TP and StarD10, respectively, using a known assay method (see Wagle et al., 2008. Anal. Biochem. 383:85-92, which is incorporated herein by reference in its entirety). Further, certain compounds were also tested for their ability to inhibit StarD7 (see Table 2).

Another assay addresses T2, StarD10 (Homo sapiens, UniProt Q9Y365).
T2 sequence (Q9Y365 1-291): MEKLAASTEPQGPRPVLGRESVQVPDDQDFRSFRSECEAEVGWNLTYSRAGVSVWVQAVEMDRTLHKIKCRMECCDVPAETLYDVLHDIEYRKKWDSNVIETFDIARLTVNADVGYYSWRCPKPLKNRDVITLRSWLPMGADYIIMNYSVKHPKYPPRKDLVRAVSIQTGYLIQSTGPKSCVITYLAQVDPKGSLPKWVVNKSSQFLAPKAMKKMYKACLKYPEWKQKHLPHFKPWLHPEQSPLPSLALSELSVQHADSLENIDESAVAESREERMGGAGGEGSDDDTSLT
Put plainly: StarD10 inhibition assay. Format: biochemical. The protocol: as §1

The target of another assay is T3, StarD7 (Homo sapiens, UniProt Q9NQZ5).
T3 sequence (Q9NQZ5 78-370): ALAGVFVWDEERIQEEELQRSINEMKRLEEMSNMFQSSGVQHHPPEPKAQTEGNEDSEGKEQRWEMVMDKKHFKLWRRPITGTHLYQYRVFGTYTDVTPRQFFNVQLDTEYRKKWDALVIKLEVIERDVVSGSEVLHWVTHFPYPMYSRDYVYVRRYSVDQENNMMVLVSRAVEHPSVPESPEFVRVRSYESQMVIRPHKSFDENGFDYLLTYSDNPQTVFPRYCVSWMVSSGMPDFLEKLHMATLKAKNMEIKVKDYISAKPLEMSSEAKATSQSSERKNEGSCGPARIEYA
The assay is described as follows: StarD7 inhibition assay. Format: biochemical. On the procedure:
as §1

Assay [1] has as its system insulin signaling pathway in cultured primary human hepatocytes. Put plainly: Activation of insulin signaling pathway in primary human hepatocytes (immunoblot). Format: cell-based. Conditions: serum starved hepatocytes, 60 minute exposure, doses of 0.05 and 0.10 μM, no insulin. On the procedure: Cultured primary human hepatocytes (commercially obtained) were serum starved overnight followed by 60 minute exposure to A) Compound 4 or B) Compound 16 at the indicated concentrations. Inhibitors were dissolved in DMSO. Negative controls included Control (no additions) and DMSO alone. The positive control included DMSO plus insulin (50 nM) for 30 minutes. Cells were harvested and lysates were subjected to immunoblot analyses using antibodies, as indicated.
A general note: In western blotting, separated proteins are transferred to a membrane and probed.

Assay [2] has as its target T4, purified recombinant PC-TP (Homo sapiens, UniProt Q9UKL6).
T4 sequence (Q9UKL6 1-214): T1 sequence (Q9UKL6 1-214)
Put plainly: Displacement assay of PC-TP using pyrene-labeled PC. Format: binding. The protocol: Competition between the small molecule inhibitors and fluorescent pyrene-labeled phosphatidylcholine (PyrPC) for binding to PC-TP was measured using Pyr-PC fluorescent vesicles quenched with tetracyanoquinodimethane (TCNQ) (Lemmetyinen H. et al. 1989). Upon mixing of quenched Pyr-PC vesicles with purified recombinant PC-TP, the rise in Pyr-PC fluorescence reflects binding of fluorescently labeled phosphatidylcholine molecules to the active site of PC-TP. If the small molecule inhibitors enter the active site and prevent binding of phosphatidylcholine to PC-TP by competing the Pyr-PC, this should reduce the observed increase in Pyr-PC fluorescence.
The fluorescence of PyrPC monomer was measured at 392 nm on SpectraMax M5 plate-reader with excitation was set at 345 nm. Pyrene-labeled PC vesicles contained PyrPC, egg PC, and TCNQ in a molar ratio of 40:20:60. For PC and PyrPC competition assays, we used unlabeled PC vesicles composed of egg PC and TCNQ in a molar ratio of 55:45 or PC vesicles of varied lipid concentrations and PyrPC vesicles quenched with TCNQ (55:45). […] To determine the affinity of eggPC compared to PyrPC, we varied the concentration of egg PC in the assay as follows: 5, 11, 22, 27, 33, and 44 μM, and a fixed amount of PyrPC (44 μM). […] In the displacement assay, the increase in pyrene monomer fluorescence (ΔF) is proportional to the amount of [Pyr], pyrene-labeled PC bound to PC-TP. The maximal fluorescence increase (ΔFmax) at pyrene monomer emission peak (˜380-394 nm) is observed in the absence of inhibitor ([inh]=0) or unlabeled lipid ([PC]=0). The fluorescence reading of wells with PyrPC vesicles alone and Pyr-PC vesicles with inhibitor (highest background fluorescence) were used as control and subtracted as background.
As described in Van Paridon et al. 1987, by plotting ΔF as a function of ΔF·[inh]/[Pyr] […] Therefore, Krel (Compound 4/PC) can be calculated as Krel (Compound 4/PyrPC)/Krel (PC/PyrPC)=0.22.

In assay [3] the target is T5, purified recombinant His-tag PC-TP (Homo sapiens, UniProt Q9UKL6).
T5 sequence (Q9UKL6 1-214): T1 sequence (Q9UKL6 1-214)
Put plainly: Surface plasmon resonance binding to immobilized PC-TP. The conditions noted are these: Biacore 3000, CM5 chip, 150 s injection. On the procedure: Compound 8 was injected into a Biacore 3000 surface plasmon resonance instrument with purified recombinant His-tag PC-TP immobilized to a carboxymethyl dextran 5 ([…]) chip for 150 s and allowed to dissociate. Each sensogram was overlaid and zeroed on the y-axis to the average baseline before injection. The start injection time for each sample was set to zero on the x-axis (see FIG. 2). The KD value was 5.0 μM.
(In SPR one partner is held on a chip, and binding of the other changes the refractive index at the surface.)

Consider `Cc1cc(C)nc(NS(=O)(=O)c2ccc(NC(=O)NC(=O)c3ccc(Cl)cc3Cl)cc2)n1` [Compound 4, 2,4-dichloro-N-(4-(N-(4,6-dimethylpynmidin-2-yl)sulfamoyl)phenylcarbamoyl) benzamide], for which the IC50 on PC-TP is 4.1 µM; against StarD10 it was 12 µM; against StarD7, 63 µM. Further, the “Activation of insulin signaling” value in assay [1] was “activated insulin signaling”. Moreover, the “Krel (Compound 4/PC)” value in assay [2] (calculated as Krel (Compound 4/PyrPC)/Krel (PC/PyrPC)) is reported as 0.22. Moreover, in assay [2] (increasing inhibitor concentration), the “Effect on pyrene monomer fluorescence (Pyr-PC binding to PC-TP)” value is “diminishing fluorescence of pyrene monomer”. The “Krel (Compound 4/PyrPC), relative affinity constant” value in assay [2] (inhibitor 5-75 μM, PyrPC 36 μM, PC-TP 300 nM, averaged from multiple experiments) is on record as 1.1+/−0.36.

With `Cc1cc(C)nc(NS(=O)(=O)c2cccc(NC(=O)NC(=O)c3ccc(Cl)cc3Cl)c2)n1` [Compound 8, 2,4-dichloro-N-(3-(N-(4,6-dimethylpyrimidin-2-yl)sulfamoyl)phenylcarbamoyl) benzamide], the concentration for half-maximal inhibition (IC50) at PC-TP is 6.5 µM; on StarD10, 14 µM. For the same compound, the Kd in assay [3] is 5 µM.

As for `Cc1cc(C)nc(NS(=O)(=O)c2ccc(NC(=O)N(C)C(=O)c3ccc(Cl)cc3Cl)cc2)n1` [Compound 15, 2,4-dichloro-N-(4-(N-(4,6-dimethylpyrimidin-2-yl)sulfamoyl)phenylcarbamoyl)-N-methylbenzamide], the 50% inhibitory concentration (IC50) against PC-TP was determined as 8 µM; against StarD10, 17 µM.

With `O=C(Nc1cc(Cl)cc(Cl)c1)C(Sc1cccc[n+]1[O-])c1ccccc1` (centres unmarked) [Compound 16, 2-(2-(3,5-dichlorophenylamino)-2-oxo-1-phenylethylthio)pyridine 1-oxide], the IC50 on PC-TP came to 3.6 µM; against StarD10, 20 µM; against StarD7, 66 µM. The “Activation of insulin signaling” value in assay [1] is on record as “activated insulin signaling”.

On to `O=C(Nc1ccccc1Cl)C(Sc1cccc[n+]1[O-])c1ccccc1` (centres unmarked) [Compound 33, 2-(2-(2-chlorophenylamino)-2-oxo-1-phenylethylthio)pyridine 1-oxide], for which the IC50 against PC-TP turned out to be 15 µM; against StarD10 it was 23 µM.

Regarding `COc1ccccc1NC(=O)C(Sc1cccc[n+]1[O-])c1ccccc1` (centres unmarked) [Compound 34, 2-(2-(2-methoxyphenylamino)-2-oxo-1-phenylethylthio)pyridine 1-oxide], the half-inhibitory concentration (IC50) at PC-TP came to 4 µM; at StarD10, 15 µM.

As usually defined, the IC50 is the concentration that gives 50% inhibition. Read a high IC50 as weaker potency in that assay. The Kd is the concentration at which binding is half-saturated.

Source of the values: US9126938B2, “Phosphatidylcholine transfer protein inhibitors” (The Brigham and Women's Hospital, Inc., priority 2009, dated 2015).
